Test results: ChEMBL document CHEMBL5316337, “Critical Role of Position 10 Residue in the Polymyxin Antimicrobial Activity” (J Med Chem, 2023)
In brackets after ≈: the same amount, converted by molar mass. Bridge positions count the residues as written; N and C are the ends. Square brackets hold non-standard residues; d marks the D form. Peptide text beside a SMILES is read from it. * marks the point of attachment. X1 = CC[C@H](C)CCCCC(=O)*; Dab = NCC[C@H](N)C(=O)O

Key:
Pseudomonas aeruginosa [1] = assay: Antibacterial activity against polymyxin-susceptible Pseudomonas aeruginosa ATCC 27853 clinical isolates assessed as reduction in bacterial growth by broth microdilution method; type: functional
Klebsiella pneumoniae [2] = assay: Antibacterial activity against polymyxin-susceptible Klebsiella pneumoniae ATCC 700721 clinical isolates assessed as reduction in bacterial growth by broth microdilution method; type: functional
Klebsiella pneumoniae [3] = assay: Antibacterial activity against Carbapenem-resistant Klebsiella pneumoniae FADD1-KP065 clinical isolates assessed as reduction in bacterial growth by broth microdilution method; type: functional
[4] = Acute toxicity in Swiss mouse assessed as maximum tolerated dose administered intravenously measured over 24 hrs; conditions: in vivo, route iv
Pseudomonas aeruginosa [5] = assay: Antibacterial activity against polymyxin-susceptible Pseudomonas aeruginosa FADD1-PA025 clinical isolates assessed as reduction in bacterial growth by broth microdilution method; type: functional
Klebsiella pneumoniae [6] = assay: Antibacterial activity against Carbapenem-resistant Klebsiella pneumoniae FADD1-KP022 clinical isolates assessed as reduction in bacterial growth by broth microdilution method; type: functional
Enterobacter cloacae [7] = assay: Antibacterial activity against polymyxin-susceptible Enterobacter cloacae FADD1-EC006 clinical isolates assessed as reduction in bacterial growth by broth microdilution method; type: functional
Klebsiella pneumoniae [8] = assay: Antibacterial activity against Carbapenem-resistant Klebsiella pneumoniae FADD1-KP032 clinical isolates assessed as reduction in bacterial growth by broth microdilution method; type: functional
Acinetobacter baumannii [9] = assay: Antibacterial activity against polymyxin-susceptible Acinetobacter baumannii ATCC 19606 clinical isolates assessed as reduction in bacterial growth by broth microdilution method; type: functional
Enterobacter cloacae [10] = assay: Antibacterial activity against polymyxin-susceptible Enterobacter cloacae FADD1-EC001 clinical isolates assessed as reduction in bacterial growth by broth microdilution method; type: functional
Pseudomonas aeruginosa [11] = assay: Antibacterial activity against Carbapenem-resistant Pseudomonas aeruginosa FADD1-PA022 clinical isolates assessed as reduction in bacterial growth by broth microdilution method; type: functional
Acinetobacter baumannii [12] = assay: Antibacterial activity against Carbapenem-resistant Acinetobacter baumannii FADD1-AB030 clinical isolates assessed as reduction in bacterial growth by broth microdilution method; type: functional
Klebsiella pneumoniae [13] = assay: Antibacterial activity against Carbapenem-resistant Klebsiella pneumoniae BM1 clinical isolates assessed as reduction in bacterial growth by broth microdilution method; type: functional
Pseudomonas aeruginosa [14] = assay: Antibacterial activity against Carbapenem-resistant Pseudomonas aeruginosa FADD1-PA001 clinical isolates assessed as reduction in bacterial growth by broth microdilution method; type: functional
Enterobacter cloacae [15] = assay: Antibacterial activity against polymyxin-susceptible Enterobacter cloacae FADD1-EC003 clinical isolates assessed as reduction in bacterial growth by broth microdilution method; type: functional
Acinetobacter baumannii [16] = assay: Antibacterial activity against Carbapenem-resistant Acinetobacter baumannii FADD1-AB034 clinical isolates assessed as reduction in bacterial growth by broth microdilution method; type: functional
Pseudomonas aeruginosa [17] = assay: Antibacterial activity against polymyxin-susceptible Pseudomonas aeruginosa FADD1-PA038 clinical isolates assessed as reduction in bacterial growth by broth microdilution method; type: functional
Acinetobacter baumannii [18] = assay: Antibacterial activity against polymyxin-susceptible Acinetobacter baumannii ATCC 17978 clinical isolates assessed as reduction in bacterial growth by broth microdilution method; type: functional
[19] = Nephrotoxicity in Swiss mouse assessed as histopathological changes in kidney by measuring semiquantitative score at 12 mg/kg, sc administered as free base every 2 hrs for 6 doses and measured at 20 hrs; type: toxicity, organism-based; conditions: in vivo

| SMILES | MIC (Pseudomonas aeruginosa [1]) [µg/mL] | MIC (Klebsiella pneumoniae [2]) [µg/mL] | MIC (Klebsiella pneumoniae [3]) [µg/mL] | MTD at 24 h [4] [mg/kg] | MIC (Pseudomonas aeruginosa [5]) [µg/mL] | MIC (Klebsiella pneumoniae [6]) [µg/mL] | MIC (Enterobacter cloacae [7]) [µg/mL] | MIC (Klebsiella pneumoniae [8]) [µg/mL] | MIC (Acinetobacter baumannii [9]) [µg/mL] | MIC (Enterobacter cloacae [10]) [µg/mL] | MIC (Pseudomonas aeruginosa [11]) [µg/mL] | MIC (Acinetobacter baumannii [12]) [µg/mL] | MIC (Klebsiella pneumoniae [13]) [µg/mL] | MIC (Pseudomonas aeruginosa [14]) [µg/mL] | MIC (Enterobacter cloacae [15]) [µg/mL] | MIC (Acinetobacter baumannii [16]) [µg/mL] | MIC (Pseudomonas aeruginosa [17]) [µg/mL] | MIC (Acinetobacter baumannii [18]) [µg/mL] | Activity [19] |
| --- | --- | --- | --- | --- | --- | --- | --- | --- | --- | --- | --- | --- | --- | --- | --- | --- | --- | --- | --- |
| CC[C@H](C)CCCCC(=O)N[C@@H](CCN)C(=O)N[C@H](C(=O)N[C@@H](CCN)C(=O)N[C@H]1CCNC(=O)[C@H]([C@@H](C)O)NC(=O)[C@H](CCN)NC(=O)[C@H](CCN)NC(=O)[C@H](CC(C)C)NC(=O)[C@@H](Cc2ccccc2)NC(=O)[C@H](CCN)NC1=O)[C@@H](C)O | 1 (≈ 0.831 µM) | 1 (≈ 0.831 µM) | 0.5 (≈ 0.415 µM) | 4 | 4 (≈ 3.32 µM) | 0.25 (≈ 0.208 µM) | 0.5 (≈ 0.415 µM) | 0.25 (≈ 0.208 µM) | 1 (≈ 0.831 µM) | 0.5 (≈ 0.415 µM) | 2 (≈ 1.66 µM) | 1 (≈ 0.831 µM) | 0.5 (≈ 0.415 µM) | 2 (≈ 1.66 µM) | 0.5 (≈ 0.415 µM) | 1 (≈ 0.831 µM) | 4 (≈ 3.32 µM) | 1 (≈ 0.831 µM) |  |
| CC[C@H](C)CCCCC(=O)N[C@@H](CCN)C(=O)N[C@H](C(=O)N[C@@H](CCN)C(=O)N[C@H]1CCNC(=O)[C@H](C)NC(=O)[C@H](CCN)NC(=O)[C@H](CCN)NC(=O)[C@H](CC(C)C)NC(=O)[C@@H](Cc2ccccc2)NC(=O)[C@H](CCN)NC1=O)[C@@H](C)O | 1 (≈ 0.852 µM) | 4 (≈ 3.41 µM) | 0.5 (≈ 0.426 µM) | 2.7 | 1 (≈ 0.852 µM) | 0.5 (≈ 0.426 µM) | 4 (≈ 3.41 µM) | 1 (≈ 0.852 µM) | 1 (≈ 0.852 µM) | 2 (≈ 1.7 µM) | 1 (≈ 0.852 µM) | 1 (≈ 0.852 µM) | 2 (≈ 1.7 µM) | 1 (≈ 0.852 µM) | 1 (≈ 0.852 µM) | 1 (≈ 0.852 µM) | 8 (≈ 6.82 µM) | 1 (≈ 0.852 µM) | 0 |
| CC[C@H](C)CCCCC(=O)N[C@@H](CCN)C(=O)N[C@H](C(=O)N[C@@H](CCN)C(=O)N[C@H]1CCNC(=O)[C@H]([C@H](C)O)NC(=O)[C@H](CCN)NC(=O)[C@H](CCN)NC(=O)[C@H](CC(C)C)NC(=O)[C@@H](Cc2ccccc2)NC(=O)[C@H](CCN)NC1=O)[C@@H](C)O | 1 (≈ 0.831 µM) | 1 (≈ 0.831 µM) | 0.5 (≈ 0.415 µM) | 4.1 | 2 (≈ 1.66 µM) | 0.25 (≈ 0.208 µM) | 8 (≈ 6.65 µM) | 2 (≈ 1.66 µM) | 8 (≈ 6.65 µM) | 2 (≈ 1.66 µM) | 1 (≈ 0.831 µM) | 2 (≈ 1.66 µM) | 1 (≈ 0.831 µM) | 1 (≈ 0.831 µM) | 1 (≈ 0.831 µM) | 2 (≈ 1.66 µM) | 4 (≈ 3.32 µM) | 4 (≈ 3.32 µM) | 0 |
| CC[C@H](C)CCCCC(=O)N[C@@H](CCN)C(=O)N[C@H](C(=O)N[C@@H](CCN)C(=O)N[C@H]1CCNC(=O)[C@H](CO)NC(=O)[C@H](CCN)NC(=O)[C@H](CCN)NC(=O)[C@H](CC(C)C)NC(=O)[C@@H](Cc2ccccc2)NC(=O)[C@H](CCN)NC1=O)[C@@H](C)O | 0.5 (≈ 0.42 µM) | 0.5 (≈ 0.42 µM) | 0.25 (≈ 0.21 µM) | 4.1 | 2 (≈ 1.68 µM) | < 0.125 | 0.5 (≈ 0.42 µM) | 0.25 (≈ 0.21 µM) | 2 (≈ 1.68 µM) | 0.5 (≈ 0.42 µM) | 0.5 (≈ 0.42 µM) | 1 (≈ 0.841 µM) | 0.25 (≈ 0.21 µM) | 0.5 (≈ 0.42 µM) | 0.25 (≈ 0.21 µM) | 1 (≈ 0.841 µM) | 1 (≈ 0.841 µM) | 1 (≈ 0.841 µM) |  |
| CC[C@H](C)CCCCC(=O)N[C@@H](CCN)C(=O)N[C@H](C(=O)N[C@@H](CCN)C(=O)N[C@H]1CCNC(=O)[C@H](CC)NC(=O)[C@H](CCN)NC(=O)[C@H](CCN)NC(=O)[C@H](CC(C)C)NC(=O)[C@@H](Cc2ccccc2)NC(=O)[C@H](CCN)NC1=O)[C@@H](C)O | 1 (≈ 0.842 µM) | 4 (≈ 3.37 µM) | 0.5 (≈ 0.421 µM) | 4.1 | 1 (≈ 0.842 µM) | 0.25 (≈ 0.211 µM) | 4 (≈ 3.37 µM) | 1 (≈ 0.842 µM) | 2 (≈ 1.68 µM) | 2 (≈ 1.68 µM) | 1 (≈ 0.842 µM) | 1 (≈ 0.842 µM) | 0.5 (≈ 0.421 µM) | 1 (≈ 0.842 µM) | 1 (≈ 0.842 µM) | 2 (≈ 1.68 µM) | 2 (≈ 1.68 µM) | 2 (≈ 1.68 µM) | 0 |
| CCC[C@@H]1NC(=O)[C@H](CCN)NC(=O)[C@H](CCN)NC(=O)[C@H](CC(C)C)NC(=O)[C@@H](Cc2ccccc2)NC(=O)[C@H](CCN)NC(=O)[C@@H](NC(=O)[C@H](CCN)NC(=O)[C@@H](NC(=O)[C@H](CCN)NC(=O)CCCC[C@@H](C)CC)[C@@H](C)O)CCNC1=O | 1 (≈ 0.832 µM) | 2 (≈ 1.66 µM) | 0.5 (≈ 0.416 µM) | 4.1 | 2 (≈ 1.66 µM) | 0.5 (≈ 0.416 µM) | 2 (≈ 1.66 µM) | 1 (≈ 0.832 µM) | 4 (≈ 3.33 µM) | 2 (≈ 1.66 µM) | 1 (≈ 0.832 µM) | 0.5 (≈ 0.416 µM) | 1 (≈ 0.832 µM) | 1 (≈ 0.832 µM) | 2 (≈ 1.66 µM) | 4 (≈ 3.33 µM) | 2 (≈ 1.66 µM) | 4 (≈ 3.33 µM) | 0 |
| CC[C@H](C)CCCCC(=O)N[C@@H](CCN)C(=O)N[C@H](C(=O)N[C@@H](CCN)C(=O)N[C@H]1CCNC(=O)[C@H](CC(C)C)NC(=O)[C@H](CCN)NC(=O)[C@H](CCN)NC(=O)[C@H](CC(C)C)NC(=O)[C@@H](Cc2ccccc2)NC(=O)[C@H](CCN)NC1=O)[C@@H](C)O (X1-[Dab]T[Dab][Dab][Dab][dF]L[Dab][Dab]L; lactam 4-C) | 2 (≈ 1.65 µM) | 4 (≈ 3.29 µM) | 0.5 (≈ 0.411 µM) | 6.1 | 2 (≈ 1.65 µM) | 0.25 (≈ 0.206 µM) | 4 (≈ 3.29 µM) | 4 (≈ 3.29 µM) | 16 (≈ 13.2 µM) | 2 (≈ 1.65 µM) | 1 (≈ 0.823 µM) | 1 (≈ 0.823 µM) | 2 (≈ 1.65 µM) | 1 (≈ 0.823 µM) | 4 (≈ 3.29 µM) | 8 (≈ 6.58 µM) | 2 (≈ 1.65 µM) | 2 (≈ 1.65 µM) |  |
